For data set [1] the following is noted: 5 mg of pilocarpine; cited from earlier work.
The nature of data set [2]: Pilot human study of saliva flow rate (Parafilm chewed for 2 minutes, saliva weighed). It counts as in vivo. The settings on record: 0.1 mg Uritos; single subject. As for the experimental part: In this study, the effect of imidafenacin (Uritos®), pilocarpine, the combination of the two, and placebo was measured in separate, yet identical, studies in a single individual.
The following protocol was for a pilot human study to evaluate the extent of saliva flow rate following the administration of 0.1 mg Uritos® tablet and 5 or 10 mg pilocarpine HCl tablet after about 0.5 or 3 hrs from imidafenacin administration. The subject was a healthy, person. The subject performed the following: • 1. Fast the night before. • 2. No coffee or soda 8 hrs prior to taking the first dose. • 3. Record time voiding and measure urine if possible. • 4. Record extent of dryness of the mouth (Very dry, dry, and not dry). • 5. Record any adverse event. • 6. Chew a 1″×1″ piece of Parafilm (American National Can (Neenah, Wis. 54956) Bar code No. 7-466676999) over 2 minutes. • 7. Collect wetted Parafilm and saliva into a tared container (pre-weighed container). • 8. Measure the amount of saliva collected. • 9. Plot Saliva collected per 2 min time intervals against time.
The subject fasted overnight, but had 240 mL of water 1 hr prior to dose. The water continued ad lib until 1 hr pre and 1 hr post dose, other than 120 mL with Uritos® and 120 mL with 5 mg Salagen tablet. For lunch, the subject consumed a light sandwich. No coffee, soda, or caffeinated or alcoholic beverages was consumed. […]

For `CC[C@@H]1C(=O)OC[C@@H]1Cc1cncn1C` [pilocarpine], the “Time of maximum saliva output after administration” value in data set [1] is on record as “about 30 minutes”.

With `Cc1nccn1CCC(C(N)=O)(c1ccccc1)c1ccccc1` [imidafenacin, 4-(2-methyl-1H-imidazol-1-yl)-2,2-diphenylbutanamide], the “Time of maximum dry mouth / maximum saliva depression point after administration” value in data set [2] is reported as “about 5 hours”.
